Experimental findings from patent publication US6933308B2 (Bristol-Myers Squibb Company, priority 2002, dated 2005) are described below.

The test system of experiment [1] is KCNQ channels. Description: Thallium flux assay for KCNQ channel openers. In kind it is cell-based. As to conditions: HEK-293 cells stably transfected with a KCNQ family member; for Min conc. response: minimal active concentration: lowest concentration giving signal >= 4 SD of negative controls; for EC50: thallium flux, 10 point concentration series. The procedure:
Thallium Flux Assay for KCNQ Channel Openers.
The thallium assay is a modification of that published by Weaver and is referenced in its entirety (Weaver, C. D. WO 02/31508, 2002).
Approximately 20,000 cells/well of an HEK-293 cell line stably transfected with one of the members of the KCNQ family were plated into clear-bottom, black-walled, poly-D-lysine coated, 384 well assay plates in 20 μl/well of low chloride plating medium. Low chloride plating medium was composed of the following: sodium gluconate, 109 mM; potassium gluconate, 5.4 mM; hemi-calcium gluconate, 3.6 mM; magnesium sulfate, 0.8 mM; sodium bicarbonate, 26.2 mM; sodium phosphate monobasic, 1.2 mM; glutamine, 2 mM; glucose, 5 mM; 4-(2-hydroxyethyl)-1-piperazineethanesulfonic acid (HEPES) (pH 7.3) 10 mM, MEM vitamin solution (10× concentration of vitamins, Gibco/LifeTechnologies 11120-052) and MEM amino acid solution (1× concentration of amino acids, Gibco/LifeTechnologies 11130-051).
Following overnight incubation in a 5% CO2 incubator at 37° C., the cells in the plates were loaded with 20 μl/well of a dye loading solution containing the commercially available thallium-sensitive fluorescent dye BTC-AM, the acetomethoxy ester of BTC (see U.S. Pat. No. 5,501,980) (2 μM) and pluronic acid F-127 (Molecular Probes P 6867) (0.02% w/v) in chloride free assay buffer. Chloride free assay buffer was composed of the following: sodium gluconate, 140 mM; potassium gluconate, 2.5 mM; hemi-calcium gluconate, 6 mM; hemi-magnesium gluconate, 2 mM; glucose, 5 mM; HEPES (pH 7.3), 10 mM.
Following incubation in the dye loading solution for from 45-90 min at room temperature, the dye loading solution was removed by aspiration and replaced with 40 μl/well of chloride free assay buffer.
Prior to addition to cell plates, test compound and standard compounds were dissolved in DMSO to 3 mM concentration. Compounds were then diluted from the 3 mM stock to 100-fold over the final assay concentration in DMSO. Finally, compounds in DMSO were diluted from 100-fold over the final assay concentration to 5-fold over the final assay concentration in chloride free assay buffer.
Ten μl/well of compounds at 5-fold over the final assay concentration were then added to the cell plates. This represents a 1:5 dilution, yielding the final test concentration. The wells used for test compounds were A1-P20. Wells A21-P22 contained a standard opener and a maximally efficacious concentration (positive control). Wells A23-P24 contained chloride free assay buffer containing 1% DMSO (negative control).
Following addition of test compounds, the plates were loaded onto the Molecular Devices FLIPR. The 488 nm line of the argon laser was used to excite the BTC and the emission filter was a 540(+/−30) nm. Images were collected at 1 Hz. Ten seconds of baseline were collected and then the FLIPR was used to add 13 μl/well of a stimulus buffer composed of 7.5 mM Tl2SO4 in chloride free assay buffer. Images were collected for an additional 60 seconds.
For data analysis, the amplitude of the average of the negative controls was subtracted from all wells. The amplitudes of the test compounds were then compared to the value of four standard deviations of the negative control wells. The lowest concentration of a test compound sufficient to generate a signal amplitude greater than or equal to four standard deviations from the amplitude of the negative controls was defined as the minimal active concentration.
For generating EC50 values, compounds were serially diluted in 1:3 volume increments to produce a 10 point concentration series. EC50 values were calculated by fitting the resulting amplitudes to a single-site logistic equation. EC50 was defined as the concentration of test compound required to yield 50% of the maximal response. Maximal response (Maximal opening) was the largest signal amplitude divided by the negative control amplitude generated by any concentration of a test compound. […]

The target of experiment [2] is T1, mKCNQ2 channels (Mus musculus, UniProt Q9Z351).
T1 construct: expressed in transfected cells
Description: KCNQ whole-cell patch-clamp. In kind it is cell-based. Here is the method:
Examples 8 and 11 were verified in a patch-clamp assay measuring the effect of compounds on the current of KCNQ channels.
KCNQ Patch-clamp. Whole-cell patch-clamp recordings were made from an HEK 293 stable cell line expressing mKCNQ2 channels, maintained in culture for 1-2 days. Patch pipettes had initial resistances of 2.5-4 MΩ. Currents were recorded with an EPC-9 amplifier (HEKA, Lambrecht, Germany) controlled with software (Pulse, HEKA) run on a standard lab PC. Series resistance compensation was used during current recording, and set at 80%. The series resistance (R) and cell capacitance (C) were determined electronically by subtracting the capacitive currents at the onset and offset of a 5 mV voltage step. The cancellation of whole-cell capacitive transients was virtually complete in all cells. Analog current signals were low-pass filtered at 2.9 kHz using a four-pole Bessel filter −3 dB) and stored on a local network server computer at a sampling rate of 1.5 kHz. All recordings were performed at room temperature (20-22° C.). The pipette solution contained (mM):KCl, 150; CaCl2, 2.5; EGTA, 5; MgCl2, 1; HEPES, 10; pH to 7.3 with KOH, and Osmolality of 290-300 mOsm. The extracellular solution contained (mM): NaCl, 140; KCl, 2.5; CaCl2, 2.5; MgCl2, 1; glucose, 10; HEPES, 10; pH to 7.3 with NaOH, and Osmolality of […].
Concentration response data were generated by measuring the difference in the steady-state amplitude of current in the presence of compound at the end of a 600 ms voltage-clamp step from a holding potential of −80 mV. The concentration-response data were fitted with Hill-type equations: I=Imax/(1+EC50/[A]^nH), where I is the steady-state current at a given concentration of agonist [A]; and Imax, EC50 and nH are parameters estimated from the curve fit. In some cases the concentration-response data were fitted with equations consisting of the sum of two Hill-type components. Current-voltage (I/V) relationships for agonist-evoked currents were obtained by performing 600 ms voltage steps (−110 mV to +40 mV) in the absence and presence of agonist.
For orientation: In patch-clamp work, channel activity is measured electrically.

What is called EC50 is the concentration needed to bring the measured effect to its halfway point. The low end stands for a more potent agent, the high end for a less potent agent. Regarding `C[C@H](NC(=O)c1sc(CCN(C)Cc2ccco2)nc1C(F)(F)F)c1cccc(N2CCOCC2)c1` [Example 11, 2-[2-[(2-furanylmethyl)methylamino]ethyl]-N-[1-[3-(4-morpholinyl)phenyl]ethyl]-4-(trifluoromethyl)-5-thiazolecarboxamide], in experiment [1], the Min conc. response came to 30 µM and the concentration for a half-maximal effect (EC50) lay in the range of 1000 to 20000 nM. In experiment [2] (HEK 293 cells expressing mKCNQ2), the “verified in a patch-clamp assay measuring the effect of compounds on the current of KCNQ channels” value was “verified”.

In experiment [1], `CC(NC(=O)c1sc(CCN2CCSCC2)nc1C(F)(F)F)c1cccc(C(F)(F)F)c1` (stereo not drawn) [Example 18, 2-[2-(4-thiomorpholinyl)ethyl]-4-(trifluoromethyl)-N-[1-[3-(trifluoromethyl)phenyl]ethyl]-5-thiazolecarboxamide] showed a Min conc. response of 3 µM and a half-maximal effective concentration (EC50) of 50 to 1000 nM. In experiment [2] (HEK 293 stable cell line expressing mKCNQ2, steady-state current at end of 600 ms step from holding potential -80 mV), this compound displayed a concentration giving a half-maximal response (EC50) of 1230 nM.

Consider `CCCN(CC1CC1)CC(O)c1nc(C(F)(F)F)c(C(=O)NC(C)c2cccc(OC(F)(F)F)c2)s1` (stereo not drawn) [Example 44], for which, in experiment [1], the Min conc. response was 3 µM and the EC50 lay within 50 to 1000 nM.

As to `CC(NC(=O)c1sc(C(O)CN2CCCC2)nc1C(F)(F)F)c1cccc(N(C)C)c1` (stereo not drawn) [Example 58, N-[1-[3-(dimethylamino)phenyl]ethyl]-2-[1-hydroxy-2-(1-pyrrolidinyl)ethyl]-4-(trifluoromethyl)-5-thiazolecarboxamide], the Min conc. response in experiment [1] came to 0.3 µM.

For `CC(NC(=O)c1sc(CCN2CCCC2)nc1C(F)(F)F)c1cccc(OC(F)(F)F)c1` (stereo not drawn) [Example 13, 2-[2-(1-pyrrolidinyl)ethyl]-4-(trifluoromethyl)-N-[1-[3-(trifluoromethoxy)phenyl]ethyl]-5-thiazolecarboxamide], in experiment [1], the Min conc. response amounted to 10 µM and the EC50 is 1000 to 20000 nM.

In experiment [1], `CC(NC(=O)c1sc(CCN(C)CCN(C)C)nc1C(F)(F)F)c1cccc(C(F)(F)F)c1` (stereo not drawn) [Example 20] yielded a Min conc. response of 30 µM and a 50% effective concentration (EC50) of 1000 to 20000 nM.

On to `CC(NC(=O)c1sc(CCN2CCCCC2)nc1C(F)(F)F)c1cccc(C(F)(F)F)c1` (stereo not drawn) [Example 24, 2-[2-(1-piperidinyl)ethyl]-N-[1-[3-(3-trifluoromethyl)phenyl]ethyl]-4-(trifluoromethyl)-5-thiazolecarboxamide], for which, in experiment [1], the Min conc. response amounted to 0.3 µM and the EC50 fell in the range of 1000 to 20000 nM.

`CCN(CC)CC(O)c1nc(C(F)(F)F)c(C(=O)N[C@@H](C)c2cccc(-c3cccnc3)c2)s1` (stereo partly drawn) [Example 50, 2-[2-(diethylamino)-1-hydroxyethyl]-N-[(1S)-1-[3-(3-pyridinyl)phenyl]ethyl]-4-(trifluoromethyl)-5-thiazolecarboxamide] came in with a Min conc. response in experiment [1] of 0.3 µM.

For the compound `CCCN(CCc1nc(C(F)(F)F)c(C(=O)NC(C)c2cccc(N(C)C)c2)s1)CC1CC1` (stereo not drawn) [Example 29, 2-[2-[(cyclopropylmethyl)propylamino]ethyl]-N-[1-[3-(dimethylamino)phenyl]ethyl]-4-(trifluoromethyl)-5-thiazolecarboxamide], in experiment [1], the Min conc. response is 3 µM and the EC50 was 1000 to 20000 nM.

`CCC(CC)NCCc1nc(C(F)(F)F)c(C(=O)NC(C)c2cccc(C(F)(F)F)c2)s1` (stereo not drawn) [Example 34, 2-[2-(3-pentylamino)ethyl]-N-[1-[3-(trifluoromethyl)phenyl]ethyl]-4-(trifluoromethyl)-5-thiazolecarboxamide]: in experiment [1], the Min conc. response stood at 3 µM and the half-maximal effective concentration (EC50) was 1000 to 20000 nM.

In experiment [1], `CCCN(CCc1nc(C(F)(F)F)c(C(=O)NC(C)c2cccc(C(F)(F)F)c2)s1)CC1CC1` (stereo not drawn) [Example 30, 2-[2-[(cyclopropylmethyl)propylamino]ethyl]-N-[1-[3-(trifluoromethyl)phenyl]ethyl]-4-(trifluoromethyl)-5-thiazolecarboxamide] gave a Min conc. response of 3 µM and a half-maximal effective concentration (EC50) of less than 50 nM.

With `CCC(CC)NCCc1nc(C(F)(F)F)c(C(=O)NC(C)c2cccc(OC(F)(F)F)c2)s1` (stereo not drawn) [Example 33, 2-[2-(3-pentylamino)ethyl]-N-[1-[3-(trifluoromethoxy)phenyl]ethyl]-4-(trifluoromethyl)-5-thiazolecarboxamide], the EC50 in experiment [1] lay in the range of 1000 to 20000 nM.

As to `CC(NC(=O)c1sc(C(O)CN2CCOCC2)nc1C(F)(F)F)c1cccc(C(F)(F)F)c1` (stereo not drawn) [Example 52, 2-[1-hydroxy-2-(4-morpholinyl)ethyl]-4-(trifluoromethyl)-N-[1-[3-(trifluoromethyl)phenyl]ethyl]-5-thiazolecarboxamide], the Min conc. response in experiment [1] was 10 µM.

As to `C[C@H](NC(=O)c1sc(CCN2CCN(C)CC2)nc1C(F)(F)F)c1cccc(N2CCOCC2)c1` [Example 48, 2-[2-(4-methyl-1-piperazinyl)ethyl]-N-[(1S)-1-[3-(4-morpholinyl)phenyl]ethyl]-4-(trifluoromethyl)-5-thiazolecarboxamide], in experiment [1], the Min conc. response turned out to be 3 µM.

`CC(=O)N1CCN(CC(O)c2nc(C(F)(F)F)c(C(=O)NC(C)c3cccc(C(F)(F)F)c3)s2)CC1` (stereo not drawn) [Example 61, 2-[2-(4-acetyl-1-piperazinyl)-1-hydroxyethyl]-4-(trifluoromethyl)-N-[1-[3-(trifluoromethyl)phenyl]ethyl]-5-thiazolecarboxamide] registered a Min conc. response in experiment [1] of 10 µM.

In experiment [1], `CC(NC(=O)c1sc(C(O)CN(C)Cc2ccco2)nc1C(F)(F)F)c1cccc(C(F)(F)F)c1` (stereo not drawn) [Example 43, 2-[1-hydroxy-[2-(2-furanylmethyl)methylamino]ethyl]-N-[1-[3-(trifluoromethyl)phenyl]ethyl]-4-(trifluoromethyl)-5-thiazolecarboxamide] returned a Min conc. response of 3 µM and a 50% effective concentration (EC50) of 50 to 1000 nM.

On to `CC(NC(=O)c1sc(CCN(C)Cc2ccco2)nc1C(F)(F)F)c1cccc(OC(F)(F)F)c1` (stereo not drawn) [Example 14, 2-[2-[(2-furanylmethyl)methylamino]ethyl]-4-(trifluoromethyl)-N-[1-[3-(trifluoromethoxy)phenyl]ethyl]-5-thiazolecarboxamide], for which, in experiment [1], the Min conc. response is 3 µM and the EC50 is less than 50 nM.
